The values below come from article PMC4536136 (Bioorganic & medicinal chemistry, 2015).

Each structure is given as a SMILES string.

Data set [1] deals with intracellular Leishmania donovani strain MHOM/ET/67/L82 β-lactamase expressing parasites. The settings on record: cited from earlier work; for EC50: read-out: L. donovani EC50, ref Van Horn et al.[18].
The test system of a further data set is L. donovani. The conditions noted are these: 15 mg/kg/day for five days, ip; cited from earlier work.
The next data set concerns BALB/c mice. Briefly: Toxicity to BALB/c mice. It counts as in vivo.
A short description of data set [2]: Pharmacokinetic analysis after ip administration in mice. Type of data set: in vivo. The conditions noted are these: for Kp / concentration at 4 h / concentration at 12 h: Swiss Webster, mouse, ip, 10 mg/kg; for Kp: liver and spleen (versus plasma).

What is called EC50 is the concentration that produces a half-maximal response. Turning to `c1ccc(CNc2nc(NCc3ccccc3)c3ccccc3n2)cc1` [Compound 1, N^2,N^4-dibenzylquinazoline-2,4-diamine], the half-maximal effective concentration (EC50) in data set [1] was 670 ± 270 nM.
Consider `CNc1nc(NCc2ccccc2)nc2ccccc12` [Compound 2, N^2-benzyl-N^4-methylquinazoline-2,4-diamine], for which the EC50 in data set [1] was 150 ± 20 nM.
For the molecule `CC(C)Nc1nc(NCc2ccco2)c2ccccc2n1` [Compound 3], the EC50 in data set [1] is 2500 ± 400 nM.
Take `Cc1ccc2c(NCc3ccco3)nc(NC(C)C)nc2c1` [Compound 4, N^4-(furan-2-ylmethyl)-N^2-isopropyl-7-methylquinazoline-2,4-diamine]: in data set [1] (ref Van Horn et al.[18]), the “L. donovani EC50” value is listed as “submicromolar”. Also, the “activity in L. donovani-infected mice” value in the data set on L. donovani is given as “promising activity”.
Broadly, the Kp is the ratio of the level in a tissue or fluid to that in plasma or blood. For the molecule `Clc1ccc(CNc2nc(NCc3ccccc3)c3ccccc3n2)cc1` [Compound 15, N^4-benzyl-N^2-(4-chlorobenzyl)quinazoline-2,4-diamine], the “toxicity to BALB/c mice” value in the data set on BALB/c mice (10 mg/kg/day × 5, ip) was “no apparent adverse effects”; in the data set with BALB/c mice (30 mg/kg/day × 5, ip), “toxic”. Further, in data set [2] (10 mg/kg ip, mice), the “plasma AUC relative to 40 after adjusting for dose” value was 2.8 fold. Also, the partition ratio (Kp) in data set [2] fell in the range of 20 to 21. In addition, the figures for the concentration at 4 h in data set [2] (liver) and in data set [2] (spleen) were 25.3 µM and 26.6 µM, respectively. Besides, the concentration at 12 h in data set [2] (liver) came out at 25.3 µM; in data set [2] (spleen), 26.6 µM.
As to `CC(C)Nc1nc(NCc2ccccc2)nc2ccccc12` [Compound 40, N^2-benzyl-N^4-isopropylquinazoline-2,4-diamine], the “toxicity to BALB/c mice” value with BALB/c mice (10 mg/kg/day × 5, ip) was “no apparent adverse effects”; in the data set with BALB/c mice (30 mg/kg/day × 5, ip), “toxic”. In data set [2], this molecule yielded a concentration ratio (Kp) of 3.2 to 16. Besides, the results for the concentration at 4 h in data set [2] (liver) and in data set [2] (spleen) were 20.2 µM and 16.5 µM, respectively. Besides, the concentration at 12 h in data set [2] (liver) stood at 20.2 µM; in data set [2] (spleen) it was 16.5 µM.
